Publication PMC8848768, “Synthesis and evaluation of potent yaku'amide A analogs” (Chemical Science, 2022)
Where two headings read alike, the source gives them in different places. Square brackets hold non-standard residues; d marks the D form. Peptide text beside a SMILES is read from it. * marks the point of attachment. NH((S)-1-NMe2-3-Me-but-2-yl) = CC(C)[C@@H](CN(C)C)N*; dVal(3-OH) = CC(C)(O)[C@@H](N)C(=O)O; d(aIle) = CC[C@H](C)[C@@H](N)C(=O)O; Val(3-OH) = CC(C)(O)[C@H](N)C(=O)O; ΔVal = CC(C)=C(N)C(=O)O

Experiments:
Assay in all cases: cells
A549 = conditions: read-out: Aver IC50, A549
Protocol: (§1) The antiproliferative activity profiles of 1a, its full-length analogs 2a and 2b, and its partial structures (23, 24, 26, and 30) were determined by in vitro screening in 72 hours MTS cell proliferation assays against a panel of 18 different human cancer cell lines. […] The three peptides were also evaluated for their antiproliferative activity against the lung fibroblast MRC5 cell line.
(§2) Cells (40 µ L) are added into individual wells of a 384-well black/clear bottom plate on day zero at concentrations enabling continuous log growth over the course of the assay. On day one, compounds (or DMSO) are transferred using an ATS-liquid handler (100 nL per well) to individual wells containing cells and the cells are treated for 72 hours (37 °C, 5% CO 2) prior to measuring proliferation using MTS reagent following manufacturer’s instructions. Net OD values are determined by subtracting the average OD values of cells (measured on day 1, T = 0) from average total OD value of cells (measured on day 4, T = 72h). IC 50 values are calculated using proprietary software (IC 50 values normalized against all compounds). Results represent n>2 independent studies (in duplicate).
(§3) Table S1. Antiproliferative Data of Compounds 1a, 2a, 2b, 23, 24, 26, and 30.
(§4) Table S2. Human Cell Line Descriptions.
(§5) Human Cell Line* Description
(§6) *All cells were obtained from ATCC and are authenticated

HT29 = conditions: read-out: Aver IC50, HT29
Protocol: as §1, §2, §3, §4, §5, §6

CALU6 = conditions: read-out: Aver IC50, CALU6
Protocol: as §1, §2, §3, §4, §5, §6

COLO678 = conditions: read-out: Aver IC50, COLO678
Protocol: as §1, §2, §3, §4, §5, §6

A375 = conditions: read-out: Aver IC50, A375
Protocol: as §1, §2, §3, §4, §5, §6

SNUC1 = conditions: read-out: Aver IC50, SNUC1
Protocol: as §1, §2, §3, §4, §5, §6

[1] = system: lung fibroblast MRC5 cell line; conditions: read-out: Aver IC50, MRC5
Protocol: as §1, §2, §3, §4, §5, §6

BXPC3 = conditions: read-out: Aver IC50, BXPC3
Protocol: as §1, §2, §3, §4, §5, §6

OVCAR3 = conditions: read-out: Aver IC50, OVCAR3
Protocol: as §1, §2, §3, §4, §5, §6

JURKAT = conditions: read-out: Aver IC50, JURKAT
Protocol: as §1, §2, §3, §4, §5, §6

HCT116 = conditions: read-out: Aver IC50, HCT116
Protocol: as §1, §2, §3, §4, §5, §6

NCIH1048 = conditions: read-out: Aver IC50, NCIH1048
Protocol: as §1, §2, §3, §4, §5, §6

MV411 = conditions: read-out: Aver IC50, MV411
Protocol: as §1, §2, §3, §4, §5, §6

THP1 = conditions: read-out: Aver IC50, THP1
Protocol: as §1, §2, §3, §4, §5, §6

HL60 = conditions: read-out: Aver IC50, HL60
Protocol: as §1, §2, §3, §4, §5, §6

RAMOS = conditions: read-out: Aver IC50, RAMOS
Protocol: as §1, §2, §3, §4, §5, §6

U937 = conditions: read-out: Aver IC50, U937
Protocol: as §1, §2, §3, §4, §5, §6

PANC1005 = conditions: read-out: Aver IC50, PANC1005
Protocol: as §1, §2, §3, §4, §5, §6

[2] = A549 (Lung - NSCLC), MTS, 72 hours, 37 °C, 5% CO2, 384-well, n>2 independent studies (in duplicate)
[3] = HT29 (Colon Carcinoma), MTS, 72 hours, 37 °C, 5% CO2, 384-well, n>2 independent studies (in duplicate)
[4] = CALU6 (Lung - Adenocarcinoma), MTS, 72 hours, 37 °C, 5% CO2, 384-well, n>2 independent studies (in duplicate)
[5] = COLO678 (Colon Carcinoma), MTS, 72 hours, 37 °C, 5% CO2, 384-well, n>2 independent studies (in duplicate)
[6] = A375 (Malignant Melanoma), MTS, 72 hours, 37 °C, 5% CO2, 384-well, n>2 independent studies (in duplicate)
[7] = SNUC1 (Colon Carcinoma), MTS, 72 hours, 37 °C, 5% CO2, 384-well, n>2 independent studies (in duplicate)
[8] = MRC5 (Lung Fibroblast, noncancerous), MTS, 72 hours, 37 °C, 5% CO2, 384-well, n>2 independent studies (in duplicate)
[9] = BXPC3 (Pancreatic - Adenocarcinoma), MTS, 72 hours, 37 °C, 5% CO2, 384-well, n>2 independent studies (in duplicate)
[10] = OVCAR3 (Ovary - Adenocarcinoma), MTS, 72 hours, 37 °C, 5% CO2, 384-well, n>2 independent studies (in duplicate)
[11] = JURKAT (acute T-cell leukemia), MTS, 72 hours, 37 °C, 5% CO2, 384-well, n>2 independent studies (in duplicate)
[12] = HCT116 (Colon Carcinoma), MTS, 72 hours, 37 °C, 5% CO2, 384-well, n>2 independent studies (in duplicate)
[13] = NCIH1048 (Lung - SCLC), MTS, 72 hours, 37 °C, 5% CO2, 384-well, n>2 independent studies (in duplicate)
[14] = MV411 (Acute Myeloid Leukemia), MTS, 72 hours, 37 °C, 5% CO2, 384-well, n>2 independent studies (in duplicate)
[15] = THP1 (Acute Monocytic Leukemia), MTS, 72 hours, 37 °C, 5% CO2, 384-well, n>2 independent studies (in duplicate)
[16] = HL60 (Leukema - Promyelocytic), MTS, 72 hours, 37 °C, 5% CO2, 384-well, n>2 independent studies (in duplicate)
[17] = RAMOS (Burkitt's lymphoma), MTS, 72 hours, 37 °C, 5% CO2, 384-well, n>2 independent studies (in duplicate)
[18] = U937 (Pro-monocytic, Human Myeloid Leukemia), MTS, 72 hours, 37 °C, 5% CO2, 384-well, n>2 independent studies (in duplicate)
[19] = PANC1005 (Pancreatic - Adenocarcinoma), MTS, 72 hours, 37 °C, 5% CO2, 384-well, n>2 independent studies (in duplicate)

Compound	IC50 (A549; [2])	IC50 (HT29; [3])	IC50 (CALU6; [4])	IC50 (COLO678; [5])	IC50 (A375; [6])	IC50 (SNUC1; [7])	IC50 [1, 8]	IC50 (BXPC3; [9])	IC50 (OVCAR3; [10])	IC50 (JURKAT; [11])	IC50 (HCT116; [12])	IC50 (NCIH1048; [13])	IC50 (MV411; [14])	IC50 (THP1; [15])	IC50 (HL60; [16])	IC50 (RAMOS; [17])	IC50 (U937; [18])	IC50 (PANC1005; [19])	other results
CC(=O)N[C@@H](C(=O)N[C@H](C(=O)NC(C(=O)N[C@H](CN(C)C)C(C)C)=C(C)C)C(C)C)C(C)C [Compound 23]	> 25 µM	> 25 µM	> 25 µM	> 25 µM	> 25 µM	> 25 µM	> 25 µM	> 25 µM	> 25 µM	> 25 µM	> 25 µM	> 25 µM	> 25 µM	> 25 µM	> 25 µM	> 25 µM	> 25 µM	> 25 µM	–
CC(=O)O[C@H]1C(=O)[C@@]2(C)[C@H]([C@H](OC(=O)c3ccccc3)[C@]3(O)C[C@H](OC(=O)[C@H](O)[C@@H](NC(=O)c4ccccc4)c4ccccc4)C(C)=C1C3(C)C)[C@]1(OC(C)=O)CO[C@@H]1C[C@@H]2O [Paclitaxel, reference compound]	–	–	–	–	–	–	–	–	–	–	–	–	–	–	–	–	–	–	IC50 (A549; Homo sapiens, A549, 72 h): 0.0046 µM; IC50 (HT29; Homo sapiens, HT-29, 72 h): 0.006 µM; IC50 (CALU6; Homo sapiens, Calu-6, 72 h): 0.0036 µM; IC50 (COLO678; Homo sapiens, COLO-678, 72 h): 0.024 µM; IC50 (A375; Homo sapiens, A-375, 72 h): 0.0077 µM; IC50 (SNUC1; Homo sapiens, SNU-C1, 72 h): 0.0265 µM; IC50 ([1]; Homo sapiens, MRC5, 72 h): 0.0088 µM; IC50 (BXPC3; Homo sapiens, BXPC-3, 72 h): 0.0055 µM; IC50 (OVCAR3; Homo sapiens, OVCAR-3, 72 h): 0.003 µM; IC50 (JURKAT; Homo sapiens, Jurkat, 72 h): 0.0053 µM; IC50 (HCT116; Homo sapiens, HCT-116, 72 h): 0.0034 µM; IC50 (NCIH1048; Homo sapiens, NCI-H1048, 72 h): 0.0047 µM; IC50 (MV411; Homo sapiens, MV4-11, 72 h): 0.0044 µM; IC50 (THP1; Homo sapiens, THP-1, 72 h): 0.0068 µM; IC50 (HL60; Homo sapiens, HL-60, 72 h): 0.0097 µM; IC50 (RAMOS; Homo sapiens, Ramos, 72 h): 0.0059 µM; IC50 (U937; Homo sapiens, U-937, 72 h): 0.003 µM; IC50 (PANC1005; Homo sapiens, Panc1005, 72 h): 0.0074 µM
CC[C@H](C)[C@@H](NC(C)=O)C(=O)N[C@@H](C(=O)N[C@H](C(=O)NC(C(=O)N[C@H](C)C(=O)N[C@@H](C(=O)N[C@H](C(=O)NC(C(=O)N[C@H](CN(C)C)C(C)C)=C(C)C)C(C)C)C(C)C)=C(C)C)C(C)(C)O)C(C)(C)O [Compound 24] (Ac-[d(aIle)][dVal(3-OH)][Val(3-OH)][ΔVal][dA][dV]V[ΔVal]-{NH((S)-1-NMe2-3-Me-but-2-yl)})	> 25 µM	> 25 µM	> 25 µM	> 25 µM	> 25 µM	24.9 µM	> 25 µM	> 25 µM	> 25 µM	> 25 µM	> 25 µM	> 25 µM	> 25 µM	> 25 µM	> 25 µM	> 25 µM	> 25 µM	> 25 µM	–
